The text below walks through data of PMC10120551, “Novel Glu-based pyrazolo[3,4-d]pyrimidine analogues: design, synthesis and biological evaluation as DHFR and TS dual inhibitors” (Journal of Enzyme Inhibition and Medicinal Chemistry, 2023).

Usually inhibition stands for the drop in the measured response relative to a control, in per cent. What is called IC50 is the midpoint of a concentration-inhibition curve. Lower therefore signals greater potency in that assay.

For assay [1], the system named is full panel of 59 cancer cells. Nature of the assay: NCI one-dose screen (SRB), full panel. It is filed as cell-based, human. The settings on record: mean over full panel of 59 cell lines, 10 µM single dose; for inhibition at 10 µM: Homo sapiens, read-out: MGI% (mean growth inhibition percentage). The method, then:
The growth percentage (G%) and cell viability of the herein target compounds 6a–l, 7a,b, and 9a–c have been screened towards a full panel of 59 cancer cells at NCI’s Developmental Therapeutics Program (NCI-DTP, MD, USA)[21]. The submitted analogues were initially examined for preliminary in vitro anticancer activity using sulforhodamine B (SRB) assay at 10 µM as a single dose to evaluate cell growth and viability according to the procedure of Drug Evaluation Branch[22]^,[23].
Different types of tumours – colon, NSCLC, leukaemia, CNS, renal, breast, ovarian, melanoma, and prostate cancers – were investigated as a full panel of 59 cell lines, and the attained results are cited in Figures S1–S17 (see Supplementary Material) where the value recorded is the growth relative to that of both the negative control and zero-time number of cells in which both growth inhibition (GI%; 0–100%) and lethality (L%; 0–100%) percentages can be identified. The growth inhibition means percentages (MGI%) for the examined target analogues towards the different treated 59 cancer cells were presented in Figure 2.
The designed analogues were submitted to NCI-Chemotherapeutic Agents Repository (MD, USA) for screening on a panel of 59 cancer cell lines. All compounds were initially examined at 10 µM concentration (Single-Dose Screen), and then the most efficient analogue 6i was screened further at 0.01–100 µM (Five-Dose Screen). The screening procedures were performed according to NCI-Drug Evaluation Branch protocol using SRB protein assay, as described previously[21]^,[66]. The experimental procedures were detailed in the Supporting Information.

Assay [2] relates to OVCAR-3 (Ovarian Cancer). Nature of the assay: MTT cytotoxicity assay. It is filed as cell-based, human. The settings on record: Homo sapiens, OVCAR-3, 48 h, OVCAR-3; MTT, 48 h; mean ± SD from triplicates. The method, then: (§1) The MTT assay was carried out according to the procedure cited earlier. Briefly, in a 96-well plate, either cancer or normal cells were seeded (10^6 cells/cm^2; 100 µL/well) and incubated for 12 h at 37 °C and CO2 (5%), then serial dilutions of compound 6i were added and incubated for 48 h using DMSO control (0.5% V/V). MTT (3-(4,5-dimethylthiazoyl)-2,5-diphenyl-tetrazolium bromide; Cat. No. M-5655) 5 mg/mL was then added. After 4 h incubation, the formed MTT formazan crystals were solubilised by 10% Triton X-100 plus 0.1 N HCl in anhydrous isopropanol. The absorbance was read using a Bioline plate reader at λ570–630 nm[25–29]. The selectivity of 6i towards HSF cells was also determined as follows[30]^,[31]: SI=IC50HSF cells/IC50of cancer cells

Assay [3] concerns PC-3 (Prostate cancer). Nature of the assay: MTT cytotoxicity assay. The format is cell-based, human. The settings on record: Homo sapiens; PC-3; MTT, 48 h; mean ± SD from triplicates. The method, then: as §1
For orientation: Tetrazolium dyes change colour on reduction, which living cells bring about.

The test system of assay [4] is MCF-7 (Breast cancer). Nature of the assay: MTT cytotoxicity assay. It is filed as cell-based, human. To be noted: Homo sapiens, MCF7; MCF-7; MTT, 48 h; mean ± SD from triplicates. The method, then:
as §1

For assay [5], the system named is HSF (Normal human skin fibroblast) cells. Nature of the assay: MTT cytotoxicity assay. The format is cell-based. The settings on record: HSF normal fibroblasts, 48 h, mean ± SD from triplicates. As to the method: The results hinted that 6i elicited stronger cytotoxicity and higher selectivity for cancer than normal cells.
as §1

Turning to `CCOC(=O)CC[C@H](NC(=O)c1ccc(NC(=O)Cn2cnc3c(c(SC)nn3-c3ccc(Br)cc3)c2=O)cc1)C(=O)OCC` [Compound 6k], the “MGI% (mean growth inhibition percentage)” value in assay [1] is “failed to demonstrate MGI%”. For `CCOC(=O)CC[C@H](NC(=O)c1ccc(NC(=O)CSC2=NC(C)=C(C(=O)OCC)[C@@H](c3ccc(Cl)cc3)N2)cc1)C(=O)OCC` [Compound 9b], in assay [1], the inhibition at 10 µM came out at 33.9%. Turning to `CCOC(=O)CC[C@H](NC(=O)c1ccc(NC(=O)CSC2=NC(C)=C(C(=O)OCC)[C@@H](c3ccc(Br)cc3)N2)cc1)C(=O)OCC` [Compound 9c], in assay [1], the inhibition at 10 µM was determined as 36.9%.

For `CN(Cc1cnc2nc(N)nc(N)c2n1)c1ccc(C(=O)N[C@@H](CCC(=O)O)C(=O)O)cc1` [MTX, methotrexate, reference compound], the IC50 in assay [2] is 6.31 ± 0.32 µM; in assay [3], 2.72 ± 0.14 µM; in assay [4], 0.58 ± 0.03 µM; in assay [5] it was 13.7 ± 0.69 µM.
